We go through 3 molecules from publication PMC7751257 (mBio, 2020).

The structures appear in SMILES notation. Like-named read-outs stand apart in the source and are kept apart here. Bridge positions count the residues as written; N and C are the ends. Square brackets hold non-standard residues; d marks the D form. Peptide text beside a SMILES is read from it. S5 = C=CCCC[C@](C)(N)C(=O)O

In data set [1] the test system is pseudovirus NL4-3.Luc.R-E-/VSV-G. Conditions: 48 h.
The subject of data set [2] is SARS-CoV-2 (US_WA-1/2020). The data set is classed as cell-based.
Data set [3] concerns pseudovirus NL4-3ΔEnv-NanoLuc/SARS-CoV-2. The following applies: 24 h.
Data set [4] can be described thus: α-Helical propensity by CD spectroscopy. The following applies: 0.125 mg/ml peptide in 10 mM PBS, 25°C, 185 to 260 nm, calculated with CDNN software. The data set is classed as physicochemical.
Data set [5] relates to pseudovirus NL4-3.Luc.R-E-/VSV-G. Conditions: 24 h.
The subject of data set [6] is pseudovirus NL4-3ΔEnv-NanoLuc/SARS-CoV-2. The following applies: 48 h.
Data set [7] in a line: Proteolytic stability in human plasma. Conditions: pooled human plasma, pH 7.4, 2 μM, 37°C, time points 0, 10, 30, 60, 120 min, LC-MS/MS, duplicate.
For data set [8] the following is noted: reported for the control stapled peptide; cited from earlier work.

Regarding `CC[C@H](C)[C@H](NC(=O)[C@@H](NC(C)=O)[C@@H](C)O)C(=O)N[C@@H](CCC(=O)O)C(=O)N[C@@H](CCC(=O)O)C(=O)N[C@@H](CCC(N)=O)C(=O)N[C@@H](C)C(=O)N[C@@H](CCCCN)C(=O)N[C@H](C(=O)N[C@@]1(C)CCC/C=C\CCC[C@@](C)(C(=O)N[C@@H](CC(N)=O)C(=O)N[C@@H](Cc2c[nH]cn2)C(=O)N[C@@H](CCC(=O)O)C(=O)N[C@@H](C)C(=O)N[C@@H](CCC(=O)O)C(=O)N[C@@H](CC(=O)O)C(=O)N[C@@H](CC(C)C)C(=O)N[C@@H](Cc2ccccc2)C(=O)N[C@@H](Cc2ccc(O)cc2)C(=O)N[C@@H](CCC(N)=O)C(=O)N[C@@]2(C)CCC/C=C\CCC[C@@](C)(C(=O)N[C@@H](Cc3c[nH]c4ccccc34)C(=O)N[C@@H](CC(N)=O)C(N)=O)NC(=O)[C@H](C)NC(=O)[C@H](CC(C)C)NC(=O)[C@H](CO)NC2=O)NC(=O)[C@H](CCCCN)NC(=O)[C@H](CC(=O)O)NC(=O)[C@H](CC(C)C)NC1=O)[C@@H](C)O` [NYBSP-1] (Ac-TIEEQAKT[S5]LDK[S5]NHEAEDLFYQ[S5]SLA[S5]WN-NH2; staple (Z) 9-13, 24-28), the IC50 was greater than 27.5 µM in data set [1], 4.1 ± 0.26 µM in data set [3], greater than 27.5 µM in data set [5] and 2200 ± 140 nM in data set [6]. Further, the IC100 in data set [2] is 17.2 µM. For the same molecule, in data set [4], the “% α-Helicity (185-260 nm)” value is 94%.

For the molecule `CC(C)[N+](C)(CCOC(=O)C1c2ccccc2Oc2ccccc21)C(C)C` [Propantheline bromide, propantheline bromide], the “half-life (T1/2) in human plasma” value in data set [7] is recorded as 8 min.

Turning to `CC(=O)N[C@@H](CC(=O)O)C(=O)N[C@@H](CC(N)=O)C(=O)N[C@@H](CCC(=O)O)C(=O)N[C@@]1(C)CCC/C=C\CCC[C@@](C)(C(=O)N[C@@H](Cc2ccc(O)cc2)C(=O)N[C@@H](Cc2c[nH]cn2)C(=O)N[C@@H](CC(C)C)C(=O)N[C@@]2(C)CCC/C=C\CCC[C@@](C)(C(=O)N[C@H](C(N)=O)C(C)C)NC(=O)[C@H](CC(N)=O)NC(=O)[C@H](Cc3ccccc3)NC(=O)[C@H](Cc3ccccc3)NC2=O)NC(=O)[C@H](Cc2ccccc2)NC(=O)[C@H](Cc2c[nH]c3ccccc23)NC(=O)[C@H](CCC(N)=O)NC1=O` [StRIP16] (Ac-DNE[S5]QWF[S5]YHL[S5]FFN[S5]V-NH2; staple (Z) 4-8, 12-16), the IC50 in data set [1] was greater than 43.5 µM; in data set [3], greater than 43.5 µM; in data set [5], greater than 43.5 µM; in data set [6], greater than 43500 nM. Besides, the “% helicity” value in data set [8] is reported as 38%.

What is called IC50 is the point on the concentration scale where inhibition reaches its midpoint.
